Reference: patent US20040072790A1, “Safe natural pharmaceutical composition for treating cancer” (priority 2002, published 2004)

What was measured:
HL-60 cells = experiment: Diversion (differentiation) of human leukemic cells, NBT reduction; type: cell-based; settings: IND, MAT, YLE, LIK, APN and PYE 50 ng/ml, higher NBT (%) means higher normal cells
Procedure: HL-60 cells were established from a patient with acute myeloid leukemia. The cells were cultured in culture flasks with RPMI plus 10% FCS
Differentiation of HL-60 cells was assessed by their abilities to produced superoxide as measured by reduction of NBT, by NSE staining and by morphology as detected on cytospin preparations stained with Diff-Quick stain Set, and by analysis of membrane-bound differentiation markers with two-color immunofluorescence Briefly, cells were preincubated at 4° C. for 60 min in 10% human AB serum and then with FITC-conjugated mouse IgGI isotype control Analysis of fluorescence was performed on a flow cytometer.
NBT % indicated percentage of normal cells

gastric cancer cells = experiment: Diversion of gastric cancer cells, NBT; type: cell-based
Procedure: The gastric cancer cells and normal cells were cultured in PRMI 1640 medium supplement with 10% FCS serum Other method is similar to example 10

Normal cells = experiment: Apoptosis of normal cells; type: cell-based
Procedure: (§1) Cells ([…] were incubated in 10 ml IMDM plus […] heat-inactivated fetal calf serum. Samples were incubated for 24 hours with various concentrations of drugs Control samples received the same amount of media, without drug addition After 24 hours of incubation the samples were pelleted and fixed in ethanol 705 for 15 minutes at 4° C., after three washes in PBS, the cells were treated with PNase I 0.5 mg/ml for 15 minutes at 37° C. The cells were harvested by centrifugation and resuspended in 50 μg/ml propidium iodide in PBS. Analysis (upon acquisition of 10,000-20,000 events) was performed on a FACscan flow cytometer with the FL2 detector in logarithmic mode, using Lysis II software (Becton Dickinson). Apoptotic cells were located in the hypodiploid region of the histogram, due to chromosome condensation and fragmentation
(§2) For evaluation of apoptosis by flow cytometry, cells were fixed and permeabilized in 1% paraformaldehyde and ice-cold 70% ethanol Digoxigenin-dUTP was incorporated at the 3′OH ends of the fragmented DNA in the presence of terminal deoxynucleotidyltranserase, and the cells were incubated with FITC-labeled anti-digoxigenin-dUTP and with propidium iodide. Green (apoptotic cells) and orange (total DNA) fluorescence were measured with a FACScan flow cytometer and analyzed with LYSIS It and CELLFIT programs Data were analyzed by Student's t-test P values were considered significant when <0.05.
(§3) Untreated and treated HL-60 cells collected by centrifugation, washed in phosphate buffered saline and re-suspended at a concentration of 5×10^6 cells and 0.1% RNase A. The mixture was incubated at 37° C. for 30 min and then incubated for an additional 30 min at 37° C. Buffer was added and 25 μl of the tube content transferred to the Horizontal 1.5% agarose gel electrophoresis was performed at 2 V/cm DNA in gels visualized under UV light after staining with ethidium Bromide (5 μg/ml)
(§4) DNA fragmentation assays DNA cleavage was performed, quantitation of fractional solubilized DNA by diphenylamine assay and the percentage of cells harboring fragmented DNA determined by in labeling techniques For the diphenylamine assay, 5×10^6 cells were lysed in 0 5 mL lysis buffer (5 mmol/L Tris-HCI, 20 mmol/L DTA, and 0 5% Triton X-100, pH 8 0) at 4° C. Lysates were centrifuged (15,000 g) for separation of high molecular weight DNA (pellet) and DNA cleavage products (supernatant). DNA was precipitated with 0.5 N perchloric acid and quantitated using diphenylamine reagent. The cell cycle distribution was determined 4 hours after addition of drug and represents mean±SD of 5 independent experiments
(§5) Apoptosis of HL-60 cells was assessed by changes in cell morphology and by measurement of DNA nicks using the Apop Tag Kkt (Oncor, Gaithersburg, MD). […] These changes are detected on cytospin preparations stained with Diff-Quick Stain Set Apoptotic cells were enumerated in a total of about 300 cells by light microscopy

[1] = test system: Human leukemia cells (HL-60); experiment: Apoptosis of human leukemia cells; type: cell-based
Procedure: Human leukemia cells (HL-60) were grown in RPMI Medium 1640 supplemented with 10% (v/v) heat-inactivated FBS (56° C. for 30 min) at 37° C. in a humidified 95% air/5% CO2 atmosphere. Cells were seeded at a level of 2×10^5 cells/ml Cells were allowed to attain a maximum density of 1 2×10^6 cells/ml before being passed by dilution into fresh medium to a concentration of 2×10^5 cells/ml Cell pellets containing 5×10^6 cells were fixed with 2 5% glutaraldehyde in cacodylate buffer (pH 7 4), dehydrated through graded alcohol, and infiltrated with LX-112 epoxy resin. After overnight polymerization at 60° C. 1-μm sections were cut with glass knives using a microtome.
as §1, §2, §3
as §4, with “Lysates were centrifuged (15,000 g) for separation of high molecular weight DNA (pellet) and DNA cleavage products (supernatant).” left out
as §5

human cancer cells = experiment: Inhibition of tumor cell proliferation; type: cell-based; settings: 1 μg/ml drug, 72 hours
Procedure: Human tumor cell lines Hela leukemia HL-60, malignant melanocarcinoma B16, oral epidermoid carcinoma (KB), lung carcinoma (A549), breast carcinoma MCF-7, adenocarcinoma of stomach Animal tumor cell lines Walker carcinoma, LLC-WRC-256, malignant melanoma (RMMI 1846), 3T3, and S-180 sarcoma (CCRF-180). All lines were routinely cultured in the RPMI1640 medium supplemented 20% fetal calf serum. The experiment was carried out in 96 microplate, each well had 5×10^5 cells and given desired concentration of 1 μg /ml (1×10^−6 g/ml) drug Then the plate was incubated at 37° C. in an atmosphere of humidified air enriched with 5 percent carbon dioxide for 72 hours
Inhibition percent rate of tumor cell proliferation was obtained according to the bellow formula [formula]

L615 transplanted tumor = experiment: Growth of transplanted tumor in mice; type: in vivo; settings: intraperitoneally, other drugs 20 mg/kg, sacrificed on the 12th day
Procedure: Male mice, weight 20-22 g, were used in the experiment 1×10^7 tumor cells were injected to mouse and other drugs injected intraperitoneally began second day. All mice were sacrificed on the 12th day, isolated the tumor and weighed and calculated the inhibition rate of tumor weight
The effect of other drugs and HHT on the growth of animal transplanted tumor as illustrated by the Table 6 20 mg/kg of other drugs could inhibit the growth of L615 transplanted tumor.

tyrosine kinase (TK) = experiment: Tyrosine kinase (TK) assay of HL-60 leukemia cells; type: cell-based, human
Procedure: Tyrosine kinase (TK) Assay. TK was measured by a modification of the method of Braun et al Briefly, H-60 leukemia cells were plated at a density of 5×10^5 cells in […], and divided control and treatments groups for incubation 24 hours at 37° C. with 5% CO2. The cells were collected by scraping, washed twice with phosphate-buffered saline, and resuspended at density of 10^6 cells/ml in 5 mM HEPESs buffer (pH 7.4). The cells were then resuspended in 1 ml of buffer containing 5 mM HEPES (pH 7.6), 1 mM MgCl2 and ImM EDTA, then placed on ice bath The cell membrane was disrupted by ultra sound and centrifuged at 1,000×g for 10 minutes The supernatant was ultra centrifuged at 30,000×g for 30 minutes at 4° C. The pellet was resuspended in 0 3 ml of buffer containing 25 mM HEOES, centrifuged at 12,000×g for 5 minutes The resulting supernatant was used for TK assay. Content of protein was determined 10 μg of protein placed in 20 mM HEPES (pH 7 6), 15 mM MgCl2, 10 nM ZnCl2 and 5% (v/v) nonidet P-40, with or without substrate [glutamic acid (GT), mg/ml]. After 5 minutes incubation at 25° C., the reaction was initiated by the addition of 25 μM [γ^32P] ATP (3 ci/mmol) After 10 minutes, the reaction was stopped by the addition of 20 mM cold ATP. 50 μl of the mixtures were spotted on glass microfiber filter discs and washed three times with cold trichloroacetic acid (TCA), contained 1 mM sodium pyrophosphate Air dried. Radioactivity was determined by liquid scintillation spectrometry. The net TK activity was determined after correcting for endogenous TK activity

[2] = test system: NNK-induced pulmonary adenomas; experiment: NNK-induced lung tumorigenesis; type: in vivo; settings: mice, drug by injection 20 mg/kg daily, 10 μmol NNK i.p., sixteen weeks
Procedure: Every group had 20 mice For treatment group, each mouse was gave Drug by injection at dose of 20 mg/kg daily. For control group, each mouse was gave same volume of physiological saline Three days later, mice were gave 10 μmol NNK (in 0.1 ml saline) by i.p injection. Sixteen weeks after these treatments the mice were killed and pulmonary adenomas were counted The statistical significance of bioassay data was determined by student's test.

[3] = test system: lipid peroxidation, liver microsome; experiment: Lipid peroxidation in liver microsome (MDA, TBA); type: biochemical, rats; settings: drug 50 μM, 37° C.
Procedure: The liver microsome (1 mg protein) in 0.15 M KCl, 0 25 M Tris-HCl buffer, pH 7.5, 2 mμ ADP, 10 μM FeSO4 and Drug B (50 μM) were incubated at 37° C. for 5 min The reactions were terminated after 30 min by added 2 ml thiobarbituric acid (TBA) and content of the malondialdehyde (MDA) formed was determined.

carcinogen-DNA binding = experiment: Inhibition of carcinogen-DNA binding; type: cell-based
Procedure: Cells were maintained in 75-cm^2 tissue culture flask with media supplemented with retinoic acid (0 1 μg/ml) and epinephrine (0 5 μg/ml) The cells were passage when they reached approximately 80% confluence and were maintained at 37° C. in 5% CO2. Cells were plated at a density of 5×10^5 cells/well in 6-well tissue culture plates and allowed to incubated for 18 h at 37° C. in 5% CO2 Following incubation, the DNA was harvested and resuspended in Tris-EDTA buffer RNA was removed by treating with RNase T1 and RNase A at 37° C. for 1 h. An aliquot was used for determining the DNA content by the absorbency at 260 nm, and the rest of the sample was used to determine the radioactivity; the percentage inhibition of carcinogen-DNA binding was determined by measuring the cpm/mg of DNA in the carcinogen

[4] = Toxic doses for mice (repeated injection); type: in vivo; settings: 38 normal mice, injection 2 mg/kg/day×5, observation period of 5 days
Procedure: Toxic doses for dogs 0 16 mg/kg/day×7 of HHT was established as the toxic doses. Toxic doses for mice In 38 normal mice after injection of HHT of 2 mg/kg/day×5 with the observation period of 5 days about 50% of the mice died.

Substance: Homoharringtonine [HHT]
- NBT (%) (HL-60 cells): 65 ± 7.0 %
- NBT (%) (gastric cancer cells): 58 ± 8.9 %
- Apoptosis (%) (Normal cells; HHT 10 ng/ml): 16.5 ± 2.0 %
- Apoptosis (%) (Normal cells; HHT 50 ng/ml): 18.5 ± 2.5 %
- Apoptosis (%) (Normal cells; HHT 50 ng/ml alone or with 50 ng/ml of the other drug (Table 4)): 18.5 ± 2.5%
- Apoptosis (%) (Normal cells; HHT 100 ng/ml): 22.0 ± 3.5 %
- Apoptosis (%) (Normal cells; HHT 500 ng/ml): 29.5 ± 5.2 %
- Apoptosis (%) ([1]; Human leukemia cell, HHT 50 ng/ml alone or with 50 ng/ml of the other drug (Table 4)): 42.8 ± 5.2%
- Apoptosis (%) ([1]; Human leukemia cells, HHT 10 ng/ml): 33.8 ± 4.8 %
- Apoptosis (%) ([1]; Human leukemia cells, HHT 50 ng/ml): 42.8 ± 5.2 %
- Apoptosis (%) ([1]; Human leukemia cells, HHT 100 ng/ml): 60.2 ± 8.9 %
- Apoptosis (%) ([1]; Human leukemia cells, HHT 500 ng/ml): 92.0 ± 10.8 %
- Inhibition (%) of growth of cancer cells (human cancer cells): 73.8 ± 8.1%
- Inhibition (%) of transplanted tumor (tumor weight) (L615 transplanted tumor): 68 ± 7.2%
- inhibition of TK activity (tyrosine kinase (TK); HL-60, 10^−8 M): 12.2%
- % of control activity (TK) (tyrosine kinase (TK); HL-60 leukemia cells, 10^−6 M, 24 hours): 0.6%
- % of control activity (TK) (tyrosine kinase (TK); HL-60 leukemia cells, 10^−7 M, 24 hours): 21.5 ± 4.0%
- % of control activity (TK) (tyrosine kinase (TK); HL-60 leukemia cells, 10^−8 M, 24 hours): 87.8 ± 12%
- % of control activity (TK) (tyrosine kinase (TK); Table 8, HHT alone or with other drug, concentration not given): 21.5 ± 4.0%
- Tumor incidence (%) [2]: 35.8 ± 4.5%
- Nmoles MDA/mg protein [3]: 8.5 ± 1.0 Nmoles MDA/mg protein
- Inhibition (%) of carcinogen-DNA binding (carcinogen-DNA binding): 56.8 ± 6.2%
- mice died [4]: about 50%
